Data set [1] deals with T. confusum. Kind of data set: Contact method, synergism between stereoisomers (Table 2). To be noted: Tribolium confusum, 24 h. The format is in vivo. The method, then: The stereoisomers are dissolved in a 1:2 mixture of mineral oil and acetone and filter paper discs (Whatman No. 1., diameter 9 cm) are impregnated with the corresponding dosage of the solution of the active ingredient. The acetone is allowed to evaporate and the insects are examined on filter paper discs placed into Petri-dishes. Three parallels are used for each dose and 15 animals are placed in each Petri-dish. Mortality rate is determined after 24 hours. The corrected mortality % data are calculated by means of the Abbot formula.
The test is carried out on T. confusum and the following results are obtained by the contact method for various active ingredient doses.
The test is carried out according to the method described in Example 20.

The subject of data set [2] is T. confusum. Put plainly: Topical LD50 (Table 3). It counts as in vivo, 1-2 weeks' old imagos. To be noted: topical, abdominal side. The method, then: (§1) In Table 3 the LD50 values of the Ig and Ii isomers and those of the Ib isomer-pair are disclosed. The data are topically measured.
(§2) The active ingredients are dissolved in 2-ethoxyethanol (cellosolve) and 0.3 μl droplets of the solutions are applied onto the dorsal cuticulum of 3-5 days' old female house flies. 10 animals are used and 2 parallels are carried out for each dose. The tests are carried out for 5 dose levels between activity limits of 0% and 100%. After treatment the flies are placed into glass vials. Mortality is determined after 24 hours. Data are transformed to log10 dosage and probit mortality. LD50 and confidence interval values are calculated by linear regression analysis of the log-probit data. The expected values required for the calculation of synergism are obtained by means of harmonic average. The synergistic factor is the quotient of the expected and measured values.
The active ingredients are dissolved in 2-ethoxyethanol and 0.3 μl droplets of the solutions are applied onto the abdominal side of 1-2 weeks' old imagos. Treatment is carried out with 2 parallels and 20 animals for each dose by using 5 dose levels in the range between activity limits of 0% and 100%. Evaluation and determination of LD50 values and synergistic factors are carried out as described in Example 21.

Data set [3] relates to Tribolium confusum. Put plainly: Contact test on Tribolium confusum (Table 12). It counts as in vivo. To be noted: Tribolium confusum, 24 h; for mortality at 110 µg/disc: 0.11 mg/disc; for mortality at 330 µg/disc: 0.33 mg/disc; for mortality at 1000 µg/disc: 1.00 mg/disc; for mortality at 3000 µg/disc: 3.00 mg/disc. The method, then:
(§3) The active ingredient is dissolved in a 1:2 mixture of oil and acetone; filter paper discs (Whatman No. 1, diameter 9 cm) are impregnated with the solutions of the corresponding stereoisomers and enantiomer-pairs, respectively. The acetone is allowed to evaporate, whereupon the insects are exposed to filter papers discs placed in Petri-dishes. Three parallels are used on each dose and 15 insects are placed into each Petri-dish. The percental mortality is determined after 24 hours. The corrected percent mortality is calculated by means of the Abbot Formula.
It appears from Table 12 that the increased activity shown in Example 41 is due to the synergistic effect of the trans-isomers to Tribolium confusum.

Data set [4] concerns T. confusum. Kind of data set: Activity as function of time, toxic symptoms (Table 16). It counts as in vivo, flour beetle (T. confusum), imagos. As for the experimental part: as §3
Activity of cypermethrin stereoisomer-pairs as function of time on flour beetle (T. Confusum).
Flour beetle (T. confusum) imagos are exposed in Petri-dishes according to the method described in Example 43. For each dose 3 parallels are used and 15 animals are applied for each parallel test. In each point of time the insects lying on their backs are counted and the percental results are expressed in Table 16.

Data set [5] has as its system Musca domestica. Kind of data set: Topical LD50 (Table 3). It counts as in vivo, house fly (Musca domestica), 3-5 days' old females. To be noted: topical, dorsal cuticulum; 24 hours. As for the experimental part: as §1, §2
For data set [6], the system named is Musca domestica. Kind of data set: Filter paper disc contact test (Table 11). The format is in vivo, house fly (Musca domestica). The settings on record: Musca domestica, 24 h. The method, then: In Table 1 the activity of various stereoisomers of cypermethrin on the house fly (Musca domestica) is shown.
as §3

Another data set relates to Colorado potato beetle. Put plainly: Topical test on Colorado potato beetle (Table 14). The format is in vivo, Colorado potato beetle (Leptinotersa decemlineata), imago. The method, then:
In Table 14 the activity on Colorado potato beetle is shown.
The test materials are dissolved in 2-ethoxyethanol (Cellosolve). One 0.3 μl drop of the solution is applied to the abdominal sterna of the imago. The treatment is carried out by using 2 parallels and 10 insects for each dose. […]

Data set [7] has as its system Tribolium confusum. Kind of data set: Contact test, mixtures of Ia and Ib of various ratio (Table 13). The format is in vivo, flour beetle (Tribolium confusum). As for the experimental part:
as §3
In Table 13 the insecticidal effect of mixtures of enantiomer-pairs Ia and Ib of various ratio is shown on flour beetle (Tribolium confusum). The test method is that disclosed in Example 43.

Broadly, the mortality is the percentage killed. Turning to `CC1(C)[C@@H](C=C(Cl)Cl)[C@@H]1C(=O)O[C@@H](C#N)c1cccc(Oc2ccccc2)c1` [Ii], the mortality at 110 µg/disc in the data set on T. confusum [1] (0.11 mg/disc) and in the data set with Tribolium confusum [3] was 0% each time. Further, the mortality at 330 µg/disc in the data set with T. confusum [1] (0.33 mg/disc) and in the data set on Tribolium confusum [3] was 0% each time. Further, the mortality at 1000 µg/disc with T. confusum [1] (1.00 mg/disc) and with Tribolium confusum [3] was 71% each time. The mortality at 3000 µg/disc in the data set on T. confusum [1] (3.00 mg/disc) and in the data set with Tribolium confusum [3] was 90% each time. For the same compound, the LD50 measured in the data set with T. confusum [2] is reported as 1291.8 ng/insect; with Musca domestica [5], 141.9 ng/insect. For the same compound, the “% of insects showing toxic symptoms” value in the data set on T. confusum [4] (30 minutes) was determined as 0%; in the data set with T. confusum [4] (30 minutes, 0.33 mg/disc), 0%; in the data set with T. confusum [4] (30 minutes, 1.00 mg/disc) it was 0%; in the data set with T. confusum [4] (30 minutes, 3.00 mg/disc), 15%; with T. confusum [4] (60 minutes), 0%; in the data set with T. confusum [4] (60 minutes, 0.33 mg/disc) it was 0%. The “% of insects showing toxic symptoms” value in the data set on T. confusum [4] (60 minutes, 1.00 mg/disc) worked out at 0%; with T. confusum [4] (60 minutes, 3.00 mg/disc), 70%; in the data set on T. confusum [4] (120 minutes), 0%; in the data set with T. confusum [4] (120 minutes, 0.33 mg/disc), 0%; in the data set on T. confusum [4] (120 minutes, 1.00 mg/disc), 0%; with T. confusum [4] (120 minutes, 3.00 mg/disc), 100%. Moreover, the “% of insects showing toxic symptoms” value in the data set with T. confusum [4] (180 minutes) turned out to be 0%; in the data set with T. confusum [4] (180 minutes, 0.33 mg/disc) it was 0%; in the data set on T. confusum [4] (180 minutes, 1.00 mg/disc), 0%; in the data set on T. confusum [4] (180 minutes, 3.00 mg/disc), 100%.
In the case of `CC1(C)[C@H](C(=O)O[C@H](C#N)c2cccc(Oc3ccccc3)c2)[C@@H]1C=C(Cl)Cl` [If], the mortality at 40 µg/disc with Musca domestica [6] (0.04 mg/disc) was found to be 68%. In the data set on Musca domestica [6] (0.11 mg/disc), the mortality at 110 µg/disc is 93%. The mortality at 330 µg/disc in the data set with Musca domestica [6] (0.33 mg/disc) and with Tribolium confusum [3] was 100% in each case. Moreover, the mortality at 1000 µg/disc with Musca domestica [6] (1.00 mg/disc) and with Tribolium confusum [3] was 100% in each case. The mortality at 3000 µg/disc in the data set on Musca domestica [6] (3.00 mg/disc) and in the data set with Tribolium confusum [3] was 100% throughout. In addition, the “% of insects showing toxic symptoms” value in the data set on T. confusum [4] (30 minutes) was 0%; with T. confusum [4] (30 minutes, 0.33 mg/disc), 0%; with T. confusum [4] (30 minutes, 1.00 mg/disc), 48%; in the data set on T. confusum [4] (30 minutes, 3.00 mg/disc), 64%; in the data set on T. confusum [4] (60 minutes), 0%; with T. confusum [4] (60 minutes, 0.33 mg/disc) it was 5%. The “% of insects showing toxic symptoms” value in the data set on T. confusum [4] (60 minutes, 1.00 mg/disc) turned out to be 84%; with T. confusum [4] (60 minutes, 3.00 mg/disc), 100%; in the data set with T. confusum [4] (120 minutes), 0%; in the data set with T. confusum [4] (120 minutes, 0.33 mg/disc), 40%; in the data set with T. confusum [4] (120 minutes, 1.00 mg/disc) it was 100%; in the data set on T. confusum [4] (120 minutes, 3.00 mg/disc), 100%. Also, the “% of insects showing toxic symptoms” value with T. confusum [4] (180 minutes) amounted to 39%; with T. confusum [4] (180 minutes, 0.33 mg/disc), 61%; in the data set on T. confusum [4] (180 minutes, 1.00 mg/disc) it was 100%; in the data set with T. confusum [4] (180 minutes, 3.00 mg/disc), 100%.
In the case of `CC1(C)C(C=C(Cl)Cl)C1C(=O)OC(C#N)c1cccc(Oc2ccccc2)c1` (stereo not shown) [Ia:Ib = 3:7], the “24 hours' mortality %” value in the data set on Colorado potato beetle (0.05 μg/beetle) worked out at 45%; with Colorado potato beetle (0.10 μg/beetle), 65%; with Colorado potato beetle (0.20 μg/beetle), 75%; in the data set with Colorado potato beetle (0.40 μg/beetle) it was 85%; in the data set with Tribolium confusum [7] (0.02 mg/disc, 1440 min), 20%; with Tribolium confusum [7] (0.06 mg/disc, 1440 min), 81%. The “24 hours' mortality %” value in the data set with Tribolium confusum [7] (0.25 mg/disc) and in the data set on Tribolium confusum [7] (1.00 mg/disc) was 100% in each case.
As for `CC1(C)C(C=C(Cl)Cl)C1C(=O)OC(C#N)c1cccc(Oc2ccccc2)c1` (stereo not shown) [5:5], the “24 hours' mortality %” value with Tribolium confusum [7] (0.02 mg/disc, 1440 min) was found to be 0%; in the data set with Tribolium confusum [7] (0.06 mg/disc, 1440 min) it was 43%. Moreover, the mortality at 250 µg/disc in the data set with Tribolium confusum [7] (Tribolium confusum, 24 h, 0.25 mg/disc) is 100%. Further, the mortality at 1000 µg/disc in the data set with Tribolium confusum [7] (Tribolium confusum, 24 h, 1.00 mg/disc) worked out at 100%.
As to `CC1(C)[C@H](C=C(Cl)Cl)[C@@H]1C(=O)O[C@@H](C#N)c1cccc(Oc2ccccc2)c1` [Ih], the mortality at 110 µg/disc in the data set on Tribolium confusum [3] came to 0%. The mortality at 330 µg/disc with Tribolium confusum [3] was 38%. Also, the mortality at 1000 µg/disc with Tribolium confusum [3] is 80%. In addition, the mortality at 3000 µg/disc in the data set with Tribolium confusum [3] stood at 100%. Moreover, the “% of insects showing toxic symptoms” value was determined as 0% in the data set on T. confusum [4] (30 minutes); 0% in the data set on T. confusum [4] (30 minutes, 0.33 mg/disc); 0% in the data set on T. confusum [4] (30 minutes, 1.00 mg/disc); 0% in the data set on T. confusum [4] (30 minutes, 3.00 mg/disc); 0% in the data set with T. confusum [4] (60 minutes); 0% in the data set with T. confusum [4] (60 minutes, 0.33 mg/disc). For the same compound, the “% of insects showing toxic symptoms” value with T. confusum [4] (60 minutes, 1.00 mg/disc) was 0%; in the data set with T. confusum [4] (60 minutes, 3.00 mg/disc), 8%; in the data set with T. confusum [4] (120 minutes) it was 0%; with T. confusum [4] (120 minutes, 0.33 mg/disc) it was 0%; with T. confusum [4] (120 minutes, 1.00 mg/disc), 0%; in the data set with T. confusum [4] (120 minutes, 3.00 mg/disc), 67%. The “% of insects showing toxic symptoms” value in the data set on T. confusum [4] (180 minutes) was 0%; with T. confusum [4] (180 minutes, 0.33 mg/disc), 0%; in the data set on T. confusum [4] (180 minutes, 1.00 mg/disc), 0%; with T. confusum [4] (180 minutes, 3.00 mg/disc) it was 88%.

The values above are taken from patent US5110976A, “Insecticidal composition comprising more than one active ingredient” (priority 1985, dated 1992).
